Here are results for 13 compounds from US11389415B2, “Methods of regulating cannabinoid receptor activity-related disorders and diseases” (The United States of America as represented by the …, priority 2012, dated 2022).

For one assay, the system named is U87MG cells. The experiment in a line: [3H]-Thymidine incorporation in U87MG cells. It is filed as cell-based, human. As for the experimental part:
(§1) Maintenance and Treatment of Cell Lines. Human HepG2 hepatocarcinoma cells and human U87MG glioma cells (ATCC, Manassas, Va.) were maintained in EMEM medium supplemented with 1% L-glutamine, 1% sodium pyruvate, 1% penicillin/streptomycin, and 10% FBS (Hyclone, Logan, Utah). The human 1321N1 astrocytoma cells (European Collection of Cell Cultures, Sigma-Aldrich) were cultured in Dulbecco's modified Eagle's medium supplemented with 10% FBS and penicillin/streptomycin. All cell lines were cultured at 37° C. in 5% CO2, and the medium was replaced every 2-3 days.
(§2) Cells were seeded in 12-well plates at approximately 50,000 cells/well and incubated at 37° C. After 24 hours, the wells were rinsed with PBS and replaced with serum-free medium containing the appropriate concentration of the test compounds. After another 24-hour incubation at 37° C., 1 μCi of [^3H]-thymidine was added to each well and incubated at 37° C. for 16 hours. [^3H]-Thymidine incorporation into DNA was monitored after the cells were washed twice with PBS and then lysed in 600 μL of 0.1N NaOH for 30 minutes with shaking. The lysate was then mixed with 3 mL of liquid scintillation cocktail (Beckman Coulter, Inc., Brea, Calif.), and radioactivity was measured by liquid scintillation counting using Beckman Coulter LS6000IC Scintillation Counter. Data are shown as CPM incorporated compared to the control cells.

Assay [1] relates to HepG2 cells. Nature of the assay: [3H]-Thymidine incorporation assay in HepG2 cells. In kind it is cell-based, human. To be noted: for % Change in HepG2 cells ([3H]-thymidine incorporation): 1 μM; for effect of pretreatment on (R,R′)-Fen-stimulated mitogenesis: 1 h pretreatment then (R,R′)-Fen 24 h; for effect of pretreatment on anti-proliferative effect of (R,R′)-MNF: 1 h pretreatment then (R,R′)-MNF 24 h; for effect on cell proliferation: compound alone. As for the experimental part:
as §1, §2
On the technique in general: Dividing cells build labelled thymidine or BrdU into new DNA.

The test system of the next assay is Akt and ERK1/2. Nature of the assay: phosphorylation of Akt and ERK1/2 in HepG2 cells (Western blot). In kind it is cell-based, human. Particulars: 1 μM, 5, 10 and 30 minutes. On the technique in general: Immunoblotting shows a protein as a band on a membrane.
The subject of a further assay is 1321N1 cells. Nature of the assay: Mitogenesis / [3H]-thymidine incorporation in 1321N1 cells. It is filed as cell-based, human. To be noted: for effect on proliferation / [3H]-thymidine incorporation: compound alone. As for the experimental part:
as §1
as §2, with “[^3H]-Thymidine Incorporation Assay. Cells” for “Cells”

The next assay relates to rat C6 glioma cells. Nature of the assay: 3H-Thymidine incorporation in rat C6 glioma cells. It is filed as cell-based. Particulars: for effect of preincubation on antiproliferative effect of MNF: C6 cells, ICI-118,551 3 nM, AM251 0.5 and 1 μM, AM630 0.5 μM, 30 minutes, then 20 nM MNF. How it is done:
Cell culture. The rat-derived C6 glioma cell line was obtained from the American Type Culture Collection (Manassas, Va.). The cells were routinely maintained in DMEM supplemented with L-glutamine, 1% penicillin/streptomycin solution, and 10% FBS in a humidified CO2 incubator at 37° C.
3H-Thymidine incorporation. C6 glioma cells were seeded in 12-well plates at ˜5×10^4 cells/well and incubated for 24 hours followed by a second 24-hour incubation with various concentrations of MNF. Radiolabeled thymidine (10 Ci/mmol; PerkinElmer Life and Analytical Sciences, Waltham, Mass.) was added at 1 μCi per well for 16 hours and its incorporation into DNA was then measured. Each treatment group was performed in triplicate and three independent studies were carried out.

In assay [2] the test system is HepG2 cells. The experiment in a line: cAMP accumulation in HepG2 cells. In kind it is cell-based, human. To be noted: β-agonists at 10 μM. How it is done: cAMP Accumulation. HepG2 cells were seeded in 96-well plates and grown to confluency. […] The levels of cAMP accumulated in cells were determined and normalized to the amount of protein per well.
(cAMP levels reflect the balance of adenylyl cyclase and phosphodiesterase activity.)

A further assay deals with GPR55 (Homo sapiens, UniProt Q9Y2T6). The experiment in a line: Cellular uptake of TocriFluor T1117 in HepG2 cells. Further details: host or cells: HepG2 hepatocarcinoma cells. It is filed as cell-based. To be noted: for effect of pretreatment on T1117 incorporation: HepG2, AM630 1 μM, WIN 55,212-2 1 μM (1 hour), AM251 1 μM (30 minutes).
Chain of GPR55 (Q9Y2T6 whole entry): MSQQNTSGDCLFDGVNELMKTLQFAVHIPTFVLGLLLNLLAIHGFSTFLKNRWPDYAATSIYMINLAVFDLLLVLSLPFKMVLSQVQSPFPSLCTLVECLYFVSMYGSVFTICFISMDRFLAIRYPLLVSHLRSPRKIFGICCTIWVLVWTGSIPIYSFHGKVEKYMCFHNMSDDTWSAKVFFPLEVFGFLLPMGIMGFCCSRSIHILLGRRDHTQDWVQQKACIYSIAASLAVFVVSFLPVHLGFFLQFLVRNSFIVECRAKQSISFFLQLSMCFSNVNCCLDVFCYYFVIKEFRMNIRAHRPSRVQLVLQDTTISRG

Structures are written as SMILES.

Protocol for Akt and ERK1/2: Western Blotting. Cells were lysed with RIPA buffer containing EGTA and EDTA (Boston BioProducts, Ashland, Mass.). The lysis buffer was mixed with a protease inhibitor cocktail (Sigma-Aldrich). Protein concentrations were measured using the bicinchoninic acid reagent (Thermo-Pierce Biotechnology, Inc., Rockford, Ill.). […] Western blots were performed according to standard methods. The visualization of immunoreactive bands was performed using the ECL Plus Western Blotting Detection System (GE Healthcare, NJ) and their quantification was done by volume densitometry using Image J software and normalization to β-actin. […] The antibodies were used at a dilution recommended by the manufacturer.

`CC(C)NC[C@H](O)c1ccc(O)c(O)c1` [(R)-isoproterenol, reference compound]: the “effect on cellular proliferation” value with U87MG cells (compound alone) was “had no effect on U87MG cells”. For the same compound, the EC50 in the assay on HepG2 cells [1] (Homo sapiens, HepG2 cells, serum-free medium, 24 h, read-out: IC50/EC50 (μM): EC50 (ED50) for increase in [3H]-thymidine incorporation) amounted to 0.4 ± 0.08 µM. In the assay with Akt and ERK1/2, the “Akt and ERK activation” value was “induced a time-dependent increase in Akt and ERK activation”. Also, the “effect on proliferation / [3H]-thymidine incorporation” value with 1321N1 cells is reported as “reduced proliferation in 1321N1 cells”. Also, the inhibition at 0.02 µM in the assay on rat C6 glioma cells (Rattus norvegicus, 20 nM, 24 hours, read-out: inhibition of C6 cell growth / reduction in mitogenesis) was in the range of 10 to 15%. Besides, the “cAMP production” value with HepG2 cells [2] is on record as “Neither (R)-isoproterenol nor (R,R′)-Fen, at 10 μM, elicited an increase in cAMP production”.
For `C[C@H](Cc1cccc2ccccc12)NC[C@H](O)c1cc(O)cc(O)c1` [(R,R′)-1-naphthylFen, (R,R′)-1-naphthylfenoterol], the “% Change in HepG2 cells ([3H]-thymidine incorporation)” value (from here on “% Change in HepG2 cells”) in the assay with HepG2 cells [1] (24 h) is reported as “(R,R): −67.52%”. Besides, the IC50 in the assay with HepG2 cells [1] (Homo sapiens, HepG2, read-out: IC50/EC50 (μM): IC50 for inhibition of [3H]-thymidine incorporation) was found to be 0.21 ± 0.07 µM.
Take `C[C@H](Cc1ccc(N)cc1)NC[C@H](O)c1cc(O)cc(O)c1` [(R,R′)-aminoFen, (R,R′)-4′-aminofenoterol]: the “% Change in HepG2 cells” value with HepG2 cells [1] (24 h) was “(R,R′): 54.37%”. In addition, the “fold more active than (R,R′)-Fen” value in the assay on HepG2 cells [1] ([3H]-thymidine incorporation, HepG2) came to 3 fold. In the assay with 1321N1 cells, the “effect on proliferation / [3H]-thymidine incorporation” value is recorded as “markedly lower”.
As to `C[C@@H](Cc1ccc(O)cc1)NC[C@H](O)c1cc(O)cc(O)c1` [(R,S′)-Fen, fenoterol], in the assay with HepG2 cells [1] (24 h), the “% Change in HepG2 cells” value is reported as 19.1%.
Same read-out and setting: the figure for `COc1ccc(C[C@H](C)NC[C@H](O)c2cc(O)cc(O)c2)c2ccccc12` [(R,S′)-MNF, 4-methoxy-1-naphthylfenoterol] is −68.1%.
Same read-out and setting: under `C[C@H](Cc1ccc(O)cc1)NC[C@@H](O)c1cc(O)cc(O)c1` [(S,R′)-Fen, fenoterol] stands 28.7%.
For the compound `Cc1c(C(=O)NN2CCCCC2)nn(-c2ccc(Cl)cc2Cl)c1-c1ccc(I)cc1` [AM251, 1-(2,4-dichlorophenyl)-5-(4-iodophenyl)-4-methyl-N-(1-piperidyl)pyrazole-3-carboxamide, reference compound], the “effect of pretreatment on anti-proliferative action of (R,R′)-MNF” value with U87MG cells is “partially blocked”. In the assay on HepG2 cells [1] (HepG2 cells), the “effect of pretreatment on (R,R′)-Fen-stimulated mitogenesis” value was “had no impact on the mitogenic responses of (R,R′)-Fen” and the “effect of pretreatment on anti-proliferative effect of (R,R′)-MNF” value was “completely inhibited the anti-proliferative effects of (R,R′)-MNF”. For the same compound, the “effect of preincubation on antiproliferative effect of MNF” value (from here on “effect of preincubation”) in the assay with rat C6 glioma cells is reported as “rendered C6 cells refractory to the growth-inhibitory effect of MNF”.
As for `COc1ccc(C(=O)c2c(C)n(CCN3CCOCC3)c3cc(I)ccc23)cc1` [AM630, 1-[2-(morpholin-4-yl)ethyl]-2-methyl-3-(4-methoxybenzoyl)-6-iodoindole], the “effect of pretreatment on anti-proliferative action of (R,R′)-MNF” value in the assay on U87MG cells was “partially blocked”. In the assay on HepG2 cells [1] (HepG2 cells), the “effect of pretreatment on (R,R′)-Fen-stimulated mitogenesis” value was “had no impact on the mitogenic responses of (R,R′)-Fen” and the “effect of pretreatment on anti-proliferative effect of (R,R′)-MNF” value was “completely inhibited the anti-proliferative effects of (R,R′)-MNF”. Besides, the “effect of pretreatment on T1117 incorporation” value at GPR55 was “largely inactive”. For the same compound, in the assay on rat C6 glioma cells, the “effect of preincubation” value is “had minimal effect against MNF signaling”.
For the compound `CCCCCCC(C)(C)c1ccc([C@@H]2C[C@H](O)CC[C@H]2CCCO)c(O)c1` [CP 55,940], the “reduction of T1117 uptake” value on GPR55 (HepG2, 0.25 μM, 30-minutes pretreatment) is 2.5 fold.
Take `Cc1ccc(OCC(O)C(C)NC(C)C)c2c1CCC2` (stereo not drawn) [ICI 118,551, 3-(isopropylamino)-1-[(7-methyl-4-indanyl)oxy]butan-2-ol, reference compound]: the “effect of pretreatment on anti-proliferative action of (R,R′)-MNF” value in the assay on U87MG cells was “inactive against the anti-proliferative action of (R,R′)-MNF in U87MG cells”. Further, in the assay on HepG2 cells [1] (HepG2 cells), the “effect of pretreatment on (R,R′)-Fen-stimulated mitogenesis” value was “significantly blocked (R,R′)-Fen-stimulated mitogenesis”, the “effect of pretreatment on anti-proliferative effect of (R,R′)-MNF” value is “refractory to ICI 118,551 pretreatment” and the “effect on cell proliferation” value is listed as “showed no effect on cell proliferation”. Further, in the assay with 1321N1 cells, the “effect of pretreatment on (R,R′)-Fen signaling” value was “blocked (R,R′)-Fen signaling in 1321N1 cells”. Also, the “effect of preincubation” value with rat C6 glioma cells was “did not block the antiproliferative effect of MNF”.
For the compound `Cc1c(C(=O)NN2CCCCC2)nn(-c2ccc(Cl)cc2Cl)c1-c1ccc(-c2ccc(CCCNC(=O)c3ccc4c(c3)C(=O)OC43c4ccc(N(C)C)cc4Oc4cc(N(C)C)ccc43)cc2)cc1` [T1117], the “time of half-maximum incorporation of T1117” value on GPR55 (HepG2 cells transfected with control siRNA) was approximately 15 min. Besides, the EC50 on GPR55 (serum-depleted cells, 37° C., 2.5-100 nM, read-out: T1117 concentration of half-maximal cellular incorporation) is approximately 8 nM.
For the compound `CN(C)c1ccc2c(-c3ccc(C(=O)NCCCc4ccccc4)cc3C(=O)[O-])c3ccc(N(C)C)cc3[o+]c2c1` [TAMRA-PPA, 5′-TAMRA-3-phenylpropan-1-amine], on GPR55 (HepG2 cells, up to 1 hour), the “cellular incorporation of fluorescence” value is listed as “no significant incorporation of fluorescence”.
For the compound `Cc1c(C(=O)c2cccc3ccccc23)c2cccc3c2n1[C@H](CN1CCOCC1)CO3` [WIN 55,212-2, reference compound], in the assay with HepG2 cells [1] (HepG2 cells), the “effect of pretreatment on (R,R′)-Fen-stimulated mitogenesis” value is “canceled out the growth-promoting action of fenoterol” and the “effect on cell proliferation” value is on record as “reduced cell proliferation”. For the same compound, on GPR55, the “effect of pretreatment on T1117 incorporation” value was “markedly increased the rate of T1117 accumulation”.
